Where two headings read alike, the source gives them in different places.
Key:
[1] = tested on: COX-2 expression in RAW 264.7 macrophages; assay: Immunofluorescence, COX-2 expression; assay type: cell-based, murine; settings: 25 µM, co-treated with LPS 1 µg/mL
Procedure: (§1) After a PBS wash, cells were fixed using cold methanol (15 min at −20 °C) and incubated overnight at 4 °C with the primary antibodies raised against NF-κB, iNOS, TNF-α, and COX-1 and 2 (Santa Cruz Biotechnology Inc., Santa Cruz, CA, USA) diluted in BSA 2%, as previously described. […] DAPI (Sigma Aldrich, Milan, Italy) 0.2 µg/mL was added for 10 min for nuclei counterstaining. A fluorescence microscope (Leica DM 6000) was used for visualizing images, and LAS-X software 3.5.7.23225 was used for acquisition and processing.

[2] = tested on: iNOS expression in RAW 264.7 macrophages; assay: Immunofluorescence, iNOS expression; assay type: cell-based, murine; settings: 25 µM, co-treated with LPS 1 µg/mL
Procedure: as §1

[3] = tested on: NF-κB localization in RAW 264.7 macrophages; assay: Immunofluorescence, NF-κB localization; assay type: cell-based, murine; settings: 25 µM, co-treated with LPS 1 µg/mL
Procedure: as §1

[4] = tested on: NO production in LPS-stimulated RAW 264.7 macrophages; assay: Griess assay, NO production; assay type: cell-based, murine; settings: 25 µM, LPS 1 µg/mL, 24 h
Procedure: The Griess assay was performed using RAW 264.7 murine macrophages to study the anti-inflammatory activity in terms of NO production. RAW 264.7 cells were plated in the 48 multi-wells and, after 24 h, treated with the tested molecules (25 µM) and the lipopolysaccharide (LPS, Sigma Aldrich, Milan, Italy) at a final concentration of 1 µg/mL. LPS is able to induce inflammation by stimulating NO production in immune system cells such as macrophages. After 24 h, the cell medium Griess reagent (Sigma Aldrich, Milan, Italy) was mixed in with a ratio of 1:1. The Griess reagent allowed for the quantification of NO released by macrophages in the treatment medium. The mixture was left for 30 min under agitation and, subsequently, the absorbance at 540 nm was measured using a multiplate reader. The obtained absorbance allowed us to calculate the NO production % compared to the absorbance obtained for the positive control, in which the cells were treated with LPS.

[5] = tested on: COX-1 expression in RAW 264.7 macrophages; assay: Immunofluorescence, COX-1 expression; assay type: cell-based, murine; settings: 25 µM, co-treated with LPS 1 µg/mL
Procedure: as §1

[6] = tested on: Staphylococcus epidermidis (ATCC 14990); assay: MIC/MBC broth dilution; assay type: cell-based
Procedure: (§2) The bacterial strains used for MIC and MBC value determinations expressed as µg/mL by the broth dilution method, according to CLSI guidelines, were the following:
(§3) -3 Gram-positive: Enterococcus faecalis (ATCC® 19433^TM), Staphylococcus aureus (ATCC® 23235^TM), and Staphylococcus epidermidis (ATCC® 14990™).
(§4) Increasing concentrations of the complexes (50, 70, 100, 150, and 200 µg/mL) were incubated with bacteria plated in 96-well microplates at 37 °C overnight as already reported, and then bacterial growth was checked at a wavelength of 600 nm using a Multiskan spectrophotometer (model Multiskan Ex Microplate; Thermo Scientific, Nyon, Switzerland). MIC or MBC values were obtained by comparing cell density with a positive control (bacterial cells grown in LB medium were added with only the vehicle, DMSO). The results were representative of three independent experiments performed in triplicate. Ampicillin, Gentamicin, and Cephalosporin (Sigma Aldrich A9393) were used as the control for strain sensitivity.

[7] = tested on: Staphylococcus aureus (ATCC 23235); assay: MIC/MBC broth dilution; assay type: cell-based
Procedure: as §2, §3, §4

[8] = tested on: Enterococcus faecalis (ATCC 19433); assay: MIC/MBC broth dilution; assay type: cell-based
Procedure: as §2, §3, §4

[9] = tested on: Pseudomonas aeruginosa (ATCC 15442); assay: MIC/MBC broth dilution; assay type: cell-based
Procedure: as §2
as §4, with “The results were representative of three independent experiments performed in triplicate.” left out

[10] = tested on: Salmonella typhimurium (ATCC 14028); assay: MIC/MBC broth dilution; assay type: cell-based
Procedure: as §2
as §4, with “The results were representative of three independent experiments performed in triplicate.” left out

[11] = tested on: human mammary epithelial cell line MCF-10A; assay: MTT assay, toxicity towards normal cells; assay type: cell-based; settings: 72 h
Procedure: (§5) The cell lines used were purchased from American Type Culture Collection (ATCC, Manassas, VA, USA). Human breast cancer cells MCF-7 and MDA-MB-231, human mammary epithelial cell line MCF-10A, and mouse BALB/3T3 embryonic fibroblasts were cultured as already described by some of us. The murine macrophage cell line RAW 264.7 was maintained in Dulbecco’s Modified Eagle’s Medium (DMEM) high glucose (4.5 g/L) supplemented with 10% Fetal Bovine Serum (FBS), 1% L-glutamine, and 100 units/mL of penicillin/streptomycin. The cell cultures were maintained at the temperature of 37 °C in a humidified atmosphere containing 5% CO2.
(§6) The 3-(4,5-dimethylthiazol-2-yl)-2,5-diphenyl-2H-tetrazolium bromide (MTT) assay (Sigma Aldrich (St. Louis, MO, USA)) was carried out to study the in vitro anticancer activities of the complexes, following the previously reported protocol. The cells were incubated for 72 h with different concentrations of the tested compounds (0.1, 1, 10, 25, 50, 100, and 500 µM) and the IC50 values were calculated from the percent (%) of control using the software GraphPad Prism 9 (GraphPad Software, La Jolla, CA, USA).

[12] = DPPH radical scavenging assay; assay type: biochemical
Procedure: The radical scavenging properties of the complexes on the 1,1-diphenyl-2-picrylhydrazil (DPPH) radical were evaluated as previously described.
All the complexes were used at different concentrations (10, 25, 50, 100, and 200 µg/mL) and the DPPH radical scavenging activity, measured at 517 nm using a microplate reader, was expressed as inhibition percentages (%IDPPH) compared to the initial concentration of DPPH (control) according to the following expression:(2) IDPPH (%)=ABSCTRL−ABSsample/ABSCTRL∗100 where ABSCTRL and ABSsample are the absorbance at 517 nm in the control and in the presence of samples, respectively.
The obtained IDPPH percentages allowed us to calculate the IC50 values using Graph-Pad Prism 9 software (GraphPad Inc., San Diego, CA, USA). Trolox was employed as a positive control, while caffeine and theophylline were reference compounds.

[13] = tested on: Klebsiella pneumoniae (ATCC 13883); assay: MIC/MBC broth dilution; assay type: cell-based
Procedure: as §2
(§7) -4 Gram-negative: Escherichia coli (ATCC® 25922^TM) and Klebsiella pneumoniae (ATCC® 13883^TM);
as §4

[14] = tested on: Escherichia coli (ATCC 25922); assay: MIC/MBC broth dilution; assay type: cell-based
Procedure: as §2, §7, §4

[15] = tested on: MDA-MB-231; assay: MTT cell viability assay; assay type: cell-based, human; settings: 72 h
Procedure: as §5, §6

[16] = tested on: MCF-7; assay: MTT cell viability assay; assay type: cell-based, human; settings: 72 h
Procedure: as §5, §6

[17] = ABTS radical scavenging assay; assay type: biochemical
Procedure: The radical scavenging properties of the complexes on a 2,20-azino-bis(3-ethylbenzothiazoline-6-sulfonate) radical cation (ABTS^+) were evaluated as previously described.
All the complexes were used at different concentrations (5, 10, 25, 50, and 100 µg/mL) and the ABTS radical scavenging activity, measured at 730 nm using a microplate reader, was expressed as inhibition percentages (%IABTS) compared tothe control, according to the following expression:(3) IABTS (%)=ABSCTRL−ABSsample/ABSCTRL∗100 where ABSCTRL and ABSsample are the absorbance at 730 nm in the control and in the presence of samples, respectively.
IC50 values were calculated from the %IABTS using GraphPad Prism 9 software (GraphPad Inc., San Diego, CA, USA). Trolox was employed as a positive control, while caffeine and theophylline were reference compounds.

[18] = tested on: Staphylococcus epidermidis (ATCC 14990); set-up: method as in PMID 16556639; settings: literature data ref 76; cited from earlier work
[19] = tested on: Enterococcus faecalis (ATCC 19433); set-up: method as in PMID 24586598; settings: literature data ref 78; cited from earlier work
[20] = tested on: Klebsiella pneumoniae (ATCC 13883); set-up: method as in PMID 35203751; settings: literature data ref 77; cited from earlier work
[21] = tested on: Staphylococcus aureus (ATCC 23235); set-up: method as in doi:10.1186/s40543-021-00294-2; settings: literature data ref 75; cited from earlier work
[22] = tested on: Escherichia coli (ATCC 25922); set-up: method as in PMID 36179970; settings: literature data ref 74; cited from earlier work

SMILES | Reduction in COX-2 expression (fluorescence) [1] | iNOS expression level [2] | NF-κB intracellular localization [3] | Reduction in NO production [4] | COX-1 protein expression level [5] | M.I.C. S. epidermidis [6] | M.I.C. S. aureus [7] | M.I.C. E. faecalis [8] | M.I.C. P. aeruginosa [9] | M.I.C. S. typhimurium [10] | IC50 [11] | IC50 [12] | M.I.C. K. pneumoniae [13] | IC50 [15] | IC50 [16] | IC50 [17] | also measured
COc1ccc2c(c1)c(CC(=O)O)c(C)n2C(=O)c1ccc(Cl)cc1 [indomethacin, reference compound] | about 30% | lower, reaching those obtained with the CTRL cells | higher cytoplasmic localization of NF-κB | about 11.23% | no difference in protein expression level |  |  |  |  |  |  |  |  |  |  |  | 
CC(=O)[O][Ag-][c]1n(C)c2c(c(=O)n(C)c(=O)n2C)[n+]1CCO [AgL3OAc, 1,3,7-Trimethylxanthin-9-[(2-hydroxy)ethyl)-8-ylidene]Ag(I) Acetate] | about 60% | net reduction in iNOS expression | mostly cytoplasmic | about 14.35% | no difference in protein expression level | 100 µg/mL | 125 µg/mL | 150 µg/mL | 150 µg/mL | 150 µg/mL | > 100 µM | > 500 µM | 150 µg/mL | > 100 µM | > 100 µM | > 500 µM | M.B.C. S. epidermidis [6]: > 125 µg/mL; M.B.C. S. aureus [7]: > 200 µg/mL; M.B.C. E. faecalis [8]: > 200 µg/mL; M.B.C. P. aeruginosa [9]: > 200 µg/mL; M.B.C. S. typhimurium [10]: > 200 µg/mL; M.B.C. K. pneumoniae [13]: > 200 µg/mL; M.B.C. E. coli [14]: > 200 µg/mL
Cn1c(=O)c2c(n(C)[c]([Au-][I])[n+]2CCO)n(C)c1=O [AuL3] | about 40% |  | mostly cytoplasmic | ~14.12% | no difference in protein expression level | >200 µg/mL | >200 µg/mL | >200 µg/mL | >200 µg/mL | >200 µg/mL | > 100 µM | > 500 µM | >200 µg/mL | > 100 µM | > 100 µM | > 500 µM | M.I.C. E. coli [14]: >200 µg/mL
CNC(C)C1CCC(N)C(OC2C(N)CC(N)C(OC3OCC(C)(O)C(NC)C3O)C2O)O1 (stereo not drawn) [Gentamicin] |  |  |  |  |  |  |  |  |  |  |  |  |  |  |  |  | M.B.C. S. epidermidis [18]: 16 to 64 µg/mL; M.I.C. S. epidermidis [18]: 8 to 32 µg/mL; M.B.C. E. faecalis [19]: 128 µg/mL; M.I.C. E. faecalis [19]: 4 µg/mL; M.B.C. K. pneumoniae [20]: > 40 µg/mL; M.I.C. K. pneumoniae [20]: 1.25 µg/mL
CC1(C)S[C@@H]2[C@H](NC(=O)[C@H](N)c3ccccc3)C(=O)N2[C@H]1C(=O)O [Ampicillin] |  |  |  |  |  |  |  |  |  |  |  |  |  |  |  |  | M.B.C. S. aureus [21]: 1/(1) [75] µg/mL; M.I.C. S. aureus [21]: 1/(1) [75] µg/mL; M.B.C. E. coli [22]: 4 µg/mL; M.I.C. E. coli [22]: 2 µg/mL

From paper PMC10931745 (International Journal of Molecular Sciences, 2024)
